Source: paper PMC9822553 (iScience, 2023)

What was measured:
[1] = system: SARS-CoV-2 Omicron; assay type: cell-based
[2] = system: SARS-CoV-2 Delta; assay type: cell-based
[3] = system: Vero cells
[4] = system: A549-ACE2 cells

SMILES	inhibition of Omicron-induced caspase 3/7 activation [1]	effect on SARS-CoV-2 replication in ALI HBE cultures [2]	drug-induced phospholipidosis [3]	drug-induced phospholipidosis [4]
Cc1cc(C)nc(NC(=S)N2CCN(Cc3ccc(C(F)(F)F)cc3)CC2)c1 [NCT-503]	inhibited	inhibited SARS-CoV-2 replication		
CCN(CCO)CCCC(C)Nc1ccnc2cc(Cl)ccc12 (stereo not shown) [hydroxychloroquine]			considerable phospholipidosis	considerable phospholipidosis
